How the values were obtained:
in vitro [1] = conditions: human, liver microsomes
in vitro [2] = conditions: rat, liver microsomes
[3] = AUC in rat at 10 mg/kg, po; type: ADME, organism-based; set-up: dose 10 mg/kg, route oral; conditions: plasma
[4] = Oral bioavailability in rat at 10 mg/kg; type: ADME, organism-based; conditions: in vivo

| Compound | microsomal CLint (in vitro [1]) | microsomal CLint (in vitro [2]) | AUC [3] | bioavailability [4] |
| --- | --- | --- | --- | --- |
| Fc1ccc(O[C@@H](c2ccccc2)[C@H]2CCNC2)c(Cl)c1 | < 5 µL/min/mg | 185 µL/min/mg | – | – |
| COc1cc(Cl)ccc1O[C@@H](c1ccccc1)[C@H]1CCNC1 | < 5 µL/min/mg | 1990 µL/min/mg | – | – |
| COc1cc([N+](=O)[O-])ccc1O[C@@H](c1ccccc1)[C@H]1CCNC1 | < 5 µL/min/mg | – | – | – |
| Fc1ccc(F)c(O[C@@H](c2ccccc2)[C@H]2CCNC2)c1Cl | 113 µL/min/mg | 1660 µL/min/mg | – | – |
| Fc1ccc(F)c(O[C@H](c2ccccc2)[C@@H]2CCNC2)c1Cl | 115 µL/min/mg | 1340 µL/min/mg | – | – |
| Fc1cc(F)c(F)c(O[C@H](c2ccccc2)[C@@H]2CCNC2)c1F | < 5 µL/min/mg | 200 µL/min/mg | – | – |
| CCN(CC)C(=O)C1(c2ccccc2)CC1CN (stereo not drawn) | < 5 µL/min/mg | < 5 µL/min/mg | – | – |
| CCOc1ccccc1O[C@@H](c1ccccc1)[C@@H]1CNCCO1 [ESREBOXETINE] | 570 µL/min/mg | 5100 µL/min/mg | – | – |

Now from value to molecule:

| microsomal CLint (in vitro [1]) | microsomal CLint (in vitro [2]) | AUC [3] | bioavailability [4] | Compound |
| --- | --- | --- | --- | --- |
| < 5 µL/min/mg | – | – | – | Clc1cccc(O[C@@H](c2ccccc2)[C@H]2CCNC2)c1Cl |
| < 5 µL/min/mg | 4530 µL/min/mg | – | – | Clc1cc(Cl)cc(O[C@@H](c2ccccc2)[C@H]2CCNC2)c1 |
| < 5 µL/min/mg | 21 µL/min/mg | – | – | Clc1cc(Cl)cc(O[C@H](c2ccccc2)[C@@H]2CCNC2)c1 |
| < 5 µL/min/mg | 100 µL/min/mg | – | – | Clc1cc(Cl)c(Cl)c(O[C@H](c2ccccc2)[C@@H]2CCNC2)c1 |
| < 5 µL/min/mg | 4620 µL/min/mg | – | – | Clc1ccc(Cl)c(O[C@@H](c2ccccc2)[C@H]2CCNC2)c1Cl |
| < 5 µL/min/mg | 4600 µL/min/mg | 70 ng·h/mL | 6% | Clc1ccc(Cl)c(O[C@H](c2ccccc2)[C@@H]2CCNC2)c1Cl |

Source: ChEMBL document CHEMBL2331276, “A novel class of 3-(phenoxy-phenyl-methyl)-pyrrolidines as potent and balanced norepinephrine and serotonin reuptake inhibitors: synthesis and structure-activity relationships” (Bioorg Med Chem Lett, 2013)
